Values quoted from earlier work as cited in PMC3065210 (Inorganic Chemistry, 2011).
Read-outs that look alike come from different tables or passages of the source. Each block holds one molecule with its values, some of them ahead of it.

Experiments:
[1] = not given; remark: listed apart in the source

acid inertness half-life (5 M HCl, 90 °C): more than 6 d
SMILES: O=C([O-])CN1CCCN2CCN(CCCN(CC(=O)[O-])CC2)CC1.[Cu+2] [Cu-CB-TE2A]

SMILES: C1CNCCN2CCNCCN(C1)CC2.[Cu+2] [Cu-CB-homocyclen]
acid inertness half-life (1 M HCl, 30 °C): 4.8 h

accumulation in the liver ([1]; 24 h p.i., previously published data (text says mice)): 0.024 ± 0.002 %ID/g
activity in blood ([1]; rats, 24 h, previously published data): 0.011 ± 0.004 %ID/g
tissue associated radioactivity in kidneys ([1]; rats, 24 h p.i., previously published data): 0.064 ± 0.007 %ID/g
liver clearance (percent reduction) ([1]; rats, at 22 or 24 h PI, from published data): 69.5%
kidney clearance ([1]; rats, out to 22 or 24 h PI, from published data): 95.6%
SMILES: O=C([O-])CN1CCN2CCN(CC1)CCN(CC(=O)[O-])CC2.[64Cu+2] [^64Cu-CB-DO2A]
